Patent US20190290576A1, “ANTI-MALARIAL PHARMACEUTICAL COMPOSITION” (Protopharma Limited, priority 2007, published 2019)

How the values were obtained:
[1] = Storage stability of artemether in solvent systems, impurities by HPLC; format: physicochemical; details: in contact with water, ethanol, or propellants
Excerpt: Tables 1 and 2 show impurities present in Artemether API, and artemether in three solvent systems: 20% ethanol+80% propellant; 50% ethanol+50% propellant; 100% ethanol; and a medium chain triglyceride, in this case, the triglyceride sold under the registered trade mark Miglyol® 810. Miglyol® is a medium chain triglyceride containing saturated C8 and C10 fatty acids, typically between 65-80% of caprylic acid (C8:0) and 20-35% of capric acid (C10:0). The propellant used in these test was 1,1,1,2 tetrafluoroethane, sold under the registered trade mark Zephex® 134a. Similar results were obtained for the propellants butane, Zephex® 227 (1,1,1,2,3,3,3 heptafluoropropane) and for a mixture of butane and propane. […] In all other cases, the impurities are at levels that exceed those permitted under the ICH Harmonised Tripartite Guidelines for Impurities in New Drug Products without specific identification or further toxicological examination.

[2] = animals, oral administration; cited from earlier work

For `CO[C@H]1O[C@@H]2O[C@@]3(C)CC[C@H]4[C@H](C)CC[C@@H]([C@H]1C)[C@@]24OO3` [artemether], the “Stability of artemether in contact with solvents” value [1] is listed as “not stable” and the bioavailability [2] is listed as 19-35%.
